From patent US8809010B2, “Method for prophylactic treatment of alzheimer's disease using inhibitors of glutaminyl cyclase and glutamate cyclases” (Probiodrug AG, priority 2003, dated 2014)

Legend:
[1] = Nonenzymatic pGlu-formation at pH 6.0 followed for 4 weeks; settings: pH 6.0, 4 weeks
physchem = settings: pKa of the substrate amino group, determined by titration
Method: The ionic strength was adjusted to 0.05 M by addition of NaCl. The rate profiles were evaluated by fitting to a model that is based on dissociating groups.
For both determinations, a three-component buffer system was applied consisting of 0.05 M acetic acid, 0.05 M pyrophosphoric acid and 0.05 M Tricine. All buffers were adjusted to equal conductivity by addition of NaCl, in order to avoid differences in ionic strength. […] All determinations were carried out at 30° C.

human QC = molecular target: T1, human QC (Homo sapiens, UniProt Q16769); assay: Qualitative substrate conversion (MALDI-TOF / fluorometric); format: biochemical
T1 construct: The cDNA of the mature QC starting with codon 38 was fused in frame with the plasmid encoded 6× histidine tag; 6xHis; made in house; host or cells: Pichia pastoris X33 (pPICZαB, secreted); also E. coli M15 (pQE-31)
Method: (§1) Matrix-assisted laser desorption/ionization mass spectrometry was carried out using the Hewlett-Packard G2025 LD-TOF System with a linear time of flight analyzer. […] Samples (5 μl) were mixed with equal volumes of the matrix solution. For matrix solution we used DHAP/DAHC, prepared by solving 30 mg 2′,6′-dihydroxyacetophenone (Aldrich) and 44 mg diammonium hydrogen citrate (Fluka) in 1 ml acetonitrile/0.1% TFA in water (1/1, v/v). A small volume (≈1 μl) of the matrix-analyte-mixture was transferred to a probe tip and immediately evaporated in a vacuum chamber (Hewlett-Packard G2024A sample prep accessory) to ensure rapid and homogeneous sample crystallization.
In order to further investigate the specificity and selectivity of the QCs, peptides were synthesized comprising either a modified N-terminal glutaminyl residue or a modified amino acid in the second position. […] Due to the cyclization of the glutaminyl residue or its analog, respectively, a mass difference of the substrate and the product of catalysis is detected. In cases of ammonia liberation of one mole per mole of substrate, the conversion was also analyzed quantitatively using the spectrophotometric assay.

[2] = tested on: QC in porcine pituitary homogenate; assay: Formation of [pGlu3]Aβ3-11a in porcine pituitary homogenate, MALDI-TOF; format: biochemical; settings: pituitary homogenate with added DPIV from porcine kidney
Method: as §1

DP IV (porcine kidney) = molecular target: T2, DP IV (porcine kidney) (Sus scrofa, UniProt P22411); assay: DP IV cleavage of [Gln3]Aβ1-11a, MALDI-TOF; format: biochemical
T2 construct: Measurements were carried out using purified DP IV (porcine kidney); from tissue; host or cells: porcine kidney
Method: as §1

[3] = Aβ aggregation assay with flow cytometry; format: physicochemical; settings: 10 μM peptide, up to 24 h
Method: At different times, samples were removed, diluted to 10 nM (based on the initial concentration of the monomer), and analyzed by flow cytometry.
Seedless Aβ peptides were diluted to 10 μM (final total peptide concentration) into 50 mM sodium acetate, pH 5.5 containing 2 mM DTT and 100 mM NaCl and incubated at 37° C. without shaking. For fibril formation analysis, the peptides were either used as a mixture of unlabeled peptide (80%) and the respective fluorescence labeled peptide (20%) or as unlabeled peptides alone. […] In order to characterize the progress of the reaction, aliquots were removed at the indicated times, diluted to 10 nM into PBS-T (0.05% Tween-20) and analyzed. For reactions containing unlabeled peptides only, prior to flow cytometry aliquots were diluted to 5 nM into PBS-T and incubated with fluorescence labeled antibody 4G8 (Chemicon, Tececula, Calif.) at 1 nM for 1 h at 4° C.
To ensure identical conditions for all measurements, all samples were measured in TruCount Tubes (BD Biosciences) and analysis was stopped after 20,000 beads were counted. Counts were transferred into ANSMS for evaluation (Alzheimer normalized specific measurement signal: event counts from flow cytometry analysis normalized to the size of the particles, i.e. to a mean size of FS Log=250).

THP-1 monocytes = assay: TransWell chemotaxis assay; format: cell-based, human; settings: supernatant of transfected HEK293 cells
Method: The chemotaxis assay was performed using 24 well TransWell plates with a pore size of 5 μm (Corning). Media, containing human MCP-1 variants expressed in HEK293, were used as chemoattractant. To this avail, 600 μl of the culture media of N-terminal human MCP-1 variants was applied directly or in dilutions 1:3, 1:10 and 1:30 in RPMI1640 to the lower chamber of the TransWell plate. Furthermore, undiluted media of HEK293 cells transfected with vector control were applied as negative control to the lower chamber. THP-1 cells were harvested and resuspended in RPMI1640 in a concentration of 1*10^6 cells/100 μl and applied in 100 μl aliquots to the upper chamber. Cells were allowed to migrate towards the chemoattractant for 2 h at 37° C. Subsequently, cells from the upper chamber were discarded and the lower chamber was mixed with 70 mM EDTA in PBS and incubated for 15 min at 37° C. to release cells attached to the membrane. Afterwards, cells migrated to the lower chamber were counted using a cell counter system (Schärfe System). The chemotactic index was calculated by dividing cells migrated to the stimulus from cells migrated to the negative control.

[4] = Thioflavin T assay of fibril formation; format: physicochemical
Method: The observations for the Aβ42 peptides were substantiated using a common ThT fluorescence assay (FIG. 24-6D). […] The typical lag phase, i.e. the thermodynamically unfavorable period, in which the seeds are generated, is displaced by a hyperbolic initial phase. Thus, there is a much higher tendency to formation of ThT positive initial aggregates.
Fibril formation analysis using Thioflavin T fluorescence was performed essentially as described previously (Chalifour R J, McLaughlin R W, Lavoie L, Morissette C, Tremblay N, Boule M, Sarazin P, Stea D, Lacombe D, Tremblay P, Gervais F 2003 Stereoselective interactions of peptide inhibitors with the beta-amyloid peptide. J Biol Chem 278:34874-34881). The DMSO stock solution was diluted in PBS to a final concentration of 50 μM of Aβ peptide. The peptide solution was added to an equal volume of ThT solution (20 μM ThT, 0.3 M NaCl, 0.01% NaN3) and applied to a 96-well microplate. Routinely, assays of each peptide were performed in triplicate on one plate. The plate was covered with an adhesive film (EXCEL Scientific, Wrightwood, Calif., USA) and incubated in the plate reader at 30° C. for up to 250 h. The fluorescence was measured every 4 h (excitation 440 nm, emission […]).

T1 sequence (Q16769 29-361): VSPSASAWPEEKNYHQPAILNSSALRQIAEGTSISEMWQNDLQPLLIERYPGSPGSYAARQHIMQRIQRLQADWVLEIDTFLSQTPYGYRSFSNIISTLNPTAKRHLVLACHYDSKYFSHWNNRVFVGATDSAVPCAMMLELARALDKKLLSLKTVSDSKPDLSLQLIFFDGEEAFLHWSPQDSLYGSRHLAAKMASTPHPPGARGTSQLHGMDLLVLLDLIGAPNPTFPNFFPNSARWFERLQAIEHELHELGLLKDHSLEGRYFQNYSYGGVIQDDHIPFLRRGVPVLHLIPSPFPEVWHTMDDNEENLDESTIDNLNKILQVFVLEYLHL
T2 sequence (P22411 whole entry): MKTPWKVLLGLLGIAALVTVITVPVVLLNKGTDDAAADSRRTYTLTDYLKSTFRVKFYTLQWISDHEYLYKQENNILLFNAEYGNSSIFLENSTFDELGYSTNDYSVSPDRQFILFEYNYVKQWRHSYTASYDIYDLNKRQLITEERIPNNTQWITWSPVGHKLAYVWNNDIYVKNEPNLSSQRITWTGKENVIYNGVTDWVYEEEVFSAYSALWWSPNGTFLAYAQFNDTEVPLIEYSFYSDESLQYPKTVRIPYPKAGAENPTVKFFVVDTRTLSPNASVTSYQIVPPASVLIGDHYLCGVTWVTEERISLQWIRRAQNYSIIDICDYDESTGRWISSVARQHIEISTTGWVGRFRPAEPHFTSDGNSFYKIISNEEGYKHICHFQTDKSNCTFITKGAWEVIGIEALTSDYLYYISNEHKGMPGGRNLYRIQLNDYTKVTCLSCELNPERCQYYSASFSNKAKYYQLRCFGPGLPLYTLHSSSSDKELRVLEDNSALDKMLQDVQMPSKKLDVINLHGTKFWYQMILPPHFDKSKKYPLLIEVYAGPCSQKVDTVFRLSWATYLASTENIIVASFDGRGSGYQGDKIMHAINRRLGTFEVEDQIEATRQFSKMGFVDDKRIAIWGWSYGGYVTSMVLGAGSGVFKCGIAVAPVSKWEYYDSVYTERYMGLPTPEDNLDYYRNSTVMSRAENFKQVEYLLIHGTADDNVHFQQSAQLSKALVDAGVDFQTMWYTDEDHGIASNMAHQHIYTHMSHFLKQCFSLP

Fc1ccc(NC(=S)NCCCn2ccnc2)cc1
melting point: 147 to 148 °C

NC(=O)CC[C@H](N)C(=O)Nc1ccc2ccccc2c1 [H-Gln-βNA]
first-order rate constant of nonenzymatic pGlu-formation [1]: 1.2*10^−7 s^−1 | pKa (physchem): 7.16 ± 0.01

N[C@@H](CCC(=O)O)C(=O)Nc1ccc2ccccc2c1 [H-Glu-βNA]
first-order rate constant of nonenzymatic pGlu-formation [1]: ≤ 1.0*10^−9 s^−1 | conversion by human QC (human QC): None of these compounds were converted

CC(C)[C@H](N)C(=O)N1CCCC1 [Val-Pyrr, Val-Pyrrolidide]
formation of [pGlu^3]Aβ3-11a from [Gln^3]Aβ1-11a, consecutive catalysis by DP IV and QC [2]: not formed | DPIV-catalysed formation of [Gln^3]Aβ3-11a from [Gln^3]Aβ1-11a (DP IV (porcine kidney)): completely prevented

Aβ(1-42): SEQ ID NO: 20
fibril formation [3]: Only very little fibril formation

MCP-1 (WT): human MCP-1(1-76) expressed in HEK293 cells
chemotaxis of THP-1 cells (THP-1 monocytes): chemotactic response

pGlu-Aβ(3-40): N-terminally pyroglutamate-modified Aβ(3-40)
aggregation, ThT fluorescence [4]: much faster aggregation compared to the non-cyclized counterpart
